What is called IC50 is the midpoint of a concentration-inhibition curve. The inhibition is the drop in the measured response relative to a control, in per cent.

Bounds are passed on as bounds.

This test concerns the target T1, recombinant human SAE enzyme (Homo sapiens, UniProt Q9UBT2).
T1 sequence (Q9UBT2 1-640): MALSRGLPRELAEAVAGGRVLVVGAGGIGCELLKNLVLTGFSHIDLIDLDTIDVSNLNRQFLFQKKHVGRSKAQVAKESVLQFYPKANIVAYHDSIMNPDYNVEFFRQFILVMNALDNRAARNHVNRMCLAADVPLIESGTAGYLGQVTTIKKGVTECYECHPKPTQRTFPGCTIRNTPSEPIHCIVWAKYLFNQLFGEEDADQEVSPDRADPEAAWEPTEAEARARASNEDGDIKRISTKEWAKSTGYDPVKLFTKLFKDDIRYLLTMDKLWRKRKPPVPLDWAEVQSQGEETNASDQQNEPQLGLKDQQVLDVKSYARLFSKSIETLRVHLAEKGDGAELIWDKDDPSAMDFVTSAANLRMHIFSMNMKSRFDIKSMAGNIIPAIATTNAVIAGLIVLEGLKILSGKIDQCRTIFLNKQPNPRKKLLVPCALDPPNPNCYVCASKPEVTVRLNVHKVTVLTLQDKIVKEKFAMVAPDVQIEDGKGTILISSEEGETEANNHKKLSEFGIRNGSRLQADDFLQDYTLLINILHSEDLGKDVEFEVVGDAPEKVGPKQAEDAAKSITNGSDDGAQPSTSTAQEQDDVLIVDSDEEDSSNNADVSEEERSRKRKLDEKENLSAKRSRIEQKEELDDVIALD
T1 sequence (Q9UBE0 1-346 partner): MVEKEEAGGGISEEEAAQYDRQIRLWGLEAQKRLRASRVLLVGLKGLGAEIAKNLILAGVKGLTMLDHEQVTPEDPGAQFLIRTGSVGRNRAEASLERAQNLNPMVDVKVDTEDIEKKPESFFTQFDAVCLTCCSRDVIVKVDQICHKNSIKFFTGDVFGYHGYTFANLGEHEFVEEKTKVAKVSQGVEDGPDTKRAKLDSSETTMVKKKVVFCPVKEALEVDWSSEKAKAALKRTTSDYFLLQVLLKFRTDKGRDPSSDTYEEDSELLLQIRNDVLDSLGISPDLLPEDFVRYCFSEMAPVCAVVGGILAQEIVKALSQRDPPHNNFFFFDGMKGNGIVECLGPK
The experiment in a line: SAE HTRF Enzyme Assay. In kind it is biochemical. Conditions: for IC50: class symbols A-C; for inhibition at 0.111 µM: compound concentration 0.111 μM, read-out: Percent Inhibition. Put shortly:
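Measured as FRET after a 2 h antibody step: SAE (0.11 nM) thioester transfer of Sumo-Flag to Ubc9-GST, 0.5 μM ATP, 24° C for 105 min, quenched with 20 mM EDTA. Output is IC50 or percent inhibition at a single concentration.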

As for `NS(=O)(=O)OC[C@H]1C[C@@H](Nc2ncncc2C(=O)c2cc(C(F)(F)F)n(Cc3ccccc3)c2)[C@@H](F)[C@@H]1O` [Compound I-94, {(1R,2R,3R,4R)-4-[(5-{[1-Benzyl-5-(trifluoromethyl)-1H-pyrrol-3-yl]carbonyl}pyrimidin-4-yl)amino]-3-fluoro-2-hydroxycyclopentyl}methyl sulfamate], the half-inhibitory concentration (IC50) was less than 10 nM and the inhibition at 0.111 µM was determined as 97%.

Regarding `Cc1ccc(F)c(Cn2ccc(C(=O)c3cncnc3N[C@@H]3C[C@H](COS(N)(=O)=O)[C@@H](O)C3)n2)c1` [Compound I-32, {(1R,2S,4R)-4-[(5-{[1-(2-fluoro-5-methylbenzyl)-1H-pyrazol-3-yl]carbonyl}pyrimidin-4-yl)amino]-2-hydroxycyclopentyl}methyl sulfamate], the IC50 was less than 10 nM and the inhibition at 0.111 µM came out at 98%.

On to `NS(=O)(=O)OC[C@H]1C[C@@H](Nc2ncncc2C(=O)c2ccn(Cc3c(F)c(F)c(F)c(F)c3F)n2)C[C@@H]1O` [Compound I-202, {(1R,2S,4R)-2-hydroxy-4-[(5-{[1-(pentafluorobenzyl)-1H-pyrazol-3-yl]carbonyl}pyrimidin-4-yl)amino]cyclopentyl}methyl sulfamate], for which the IC50 lay in the range of 10 to 100 nM and the inhibition at 0.111 µM came out at 83%.

Take `NS(=O)(=O)OC[C@H]1C[C@@H](Nc2ncncc2C(=O)c2cc(Cl)n(Cc3cccc(Cl)c3)c2)[C@@H](F)[C@@H]1O` [Compound I-61]: the IC50 was less than 10 nM and the inhibition at 0.111 µM stood at 99%.

The record behind these values is patent US9695154B2, “Heteroaryl inhibitors of sumo activating enzyme” (MILLENNIUM PHARMACEUTICALS, INC., priority 2013, dated 2017).
